In the supplement of paper PMC10307832:

How the values were obtained:
Assay in all cases: relative viability (nuclei count vs DMSO), 5 days (fraction); higher = more cells survive
[1] = compound: CCN(CCO)CCCC(C)Nc1ccnc2cc(Cl)ccc12 [Hydroxychloroquine] + Cc1cc(Nc2cc(N3CCN(C)CC3)nc(Sc3ccc(NC(=O)C4CC4)cc3)n2)n[nH]1 [Tozasertib] (partner 0.1 µM)
Outline: (§1)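 Medians of duplicate plates are given as relative viability. That measure is the nuclei count in treated wells divided by the count in vehicle wells. Counts were taken on 4× images of lung cancer cell lines in 1536-well plates, 5 days after pin-tool dosing the day after seeding with one drug alone or a fixed anchor-drug dose plus five library-drug doses (not always all listed) in √10 steps.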

[2] = compound: CCN(CCO)CCCC(C)Nc1ccnc2cc(Cl)ccc12 [Hydroxychloroquine] + COc1cccc2cc(-c3nc([C@H]4CC[C@H](C(=O)O)CC4)n4ncnc(N)c34)[nH]c12 [OSI-027] (partner 0.5 µM)
Outline: as §1

[3] = compound: CCN(CCO)CCCC(C)Nc1ccnc2cc(Cl)ccc12 [Hydroxychloroquine] + C[C@]1(O)C[C@@H](c2nc(-c3ccc4ccc(-c5ccccc5)nc4c3)c3c(N)nccn32)C1 [Linsitinib] (partner 1 µM)
Outline: as §1

[4] = compound: CCN(CCO)CCCC(C)Nc1ccnc2cc(Cl)ccc12 [Hydroxychloroquine] + C[C@@H](Oc1cc(-c2cnn(C3CCNCC3)c2)cnc1N)c1c(Cl)ccc(F)c1Cl [Crizotinib] (partner 1 µM)
Outline: as §1

Cell Line | relative viability ([1]; first compound 0.5 µM) | relative viability ([1]; first compound 1.581 µM) | relative viability ([1]; first compound 5 µM) | relative viability ([1]; first compound 15.81 µM) | relative viability ([1]; first compound 50 µM) | relative viability ([2]; first compound 0.5 µM) | relative viability ([2]; first compound 1.581 µM) | relative viability ([2]; first compound 5 µM) | relative viability ([2]; first compound 15.81 µM) | relative viability ([2]; first compound 50 µM) | relative viability ([3]; first compound 0.5 µM) | relative viability ([3]; first compound 1.581 µM) | relative viability ([3]; first compound 5 µM) | relative viability ([3]; first compound 15.81 µM) | relative viability ([3]; first compound 50 µM) | relative viability ([4]; first compound 0.5 µM) | relative viability ([4]; first compound 1.581 µM) | relative viability ([4]; first compound 5 µM) | relative viability ([4]; first compound 15.81 µM) | relative viability ([4]; first compound 50 µM)
NCI-H460 | 0.515 | 0.4 | 0.377 | 0.413 | 0.516 | 0.621 | 0.649 | 0.569 | 0.672 | 0.847 | 0.849 | 0.862 | 0.633 | 0.939 | 0.848 | 0.985 | 0.91 | 0.938 | 0.745 | 0.952
NCI-H1793 | 0.521 | 0.266 | 0.268 | 0.366 | 0.308 | 0.334 | 0.226 | 0.226 | 0.234 | 0.262 | 0.774 | 0.758 | 1.06 | 0.941 | 0.964 | – | – | – | – | –
NCI-H23 | 0.56 | 0.337 | 0.41 | 0.65 | 0.424 | 0.684 | 0.447 | 0.572 | 0.535 | 0.572 | 0.499 | 0.693 | 0.56 | 0.553 | 0.546 | 0.473 | 0.537 | 0.579 | 0.446 | 0.603
HARA | 0.221 | 0.0946 | 0.0888 | 0.11 | 0.099 | 0.608 | 0.416 | 0.469 | 0.486 | 0.435 | 1.01 | 0.993 | 0.996 | 0.997 | 0.913 | 1.13 | 1.31 | 1.05 | 1.02 | 1.04
NCI-H1792 | – | – | – | – | – | 0.797 | 0.729 | 0.715 | 1.04 | 0.825 | 0.534 | 0.588 | 0.583 | 0.536 | 0.56 | 0.951 | 1.05 | 1.01 | 1.08 | 1.07
NCI-H1703 | – | – | – | – | – | – | – | – | – | – | 0.601 | 0.418 | 0.8 | 0.614 | 1.09 | 0.851 | – | 0.592 | 0.74 | 0.921
NCI-H2342 | 0.493 | 0.467 | 0.439 | 0.508 | 0.627 | 0.585 | 0.578 | 0.613 | 0.68 | 0.69 | – | – | – | – | – | – | – | – | – | –
CAL-12T | 0.342 | 0.276 | 0.336 | 0.296 | 0.378 | 0.97 | 0.8 | 0.633 | 0.684 | 0.687 | 0.916 | 0.75 | 0.773 | 0.866 | 0.886 | 0.577 | 0.614 | 0.92 | 0.579 | 0.831
NCI-H838 | 0.234 | 0.241 | 0.23 | 0.281 | 0.281 | 0.421 | 0.392 | 0.37 | 0.406 | 0.401 | 0.929 | 0.91 | 1.01 | 0.93 | 1.04 | 0.805 | 0.8 | 0.823 | 0.829 | 0.974
NCI-H2085 | 0.858 | 0.828 | 0.799 | 0.813 | 0.884 | 0.788 | 0.557 | 0.625 | 0.693 | 0.821 | 0.891 | 0.788 | 0.938 | 0.941 | 0.883 | 0.904 | 0.783 | 0.826 | 0.753 | 0.847
NCI-H1395 | 0.74 | 0.717 | 0.73 | 0.824 | 0.723 | 0.67 | 0.566 | 0.639 | 0.638 | 0.549 | 0.964 | 0.979 | 1.13 | 1.13 | 1.18 | – | – | – | – | –
NCI-H1648 | – | 0.498 | 0.684 | 0.486 | 0.412 | – | 0.283 | 0.273 | 0.254 | 0.274 | – | – | – | – | – | – | – | – | – | –
NCI-H520 | 0.45 | 0.39 | 0.442 | 0.465 | 0.41 | 0.301 | 0.22 | 0.285 | 0.324 | 0.268 | 1.25 | 0.908 | 0.908 | 1.16 | 0.923 | 0.894 | 0.826 | 0.86 | 0.752 | 0.993
A549 | – | – | – | – | – | – | – | – | – | – | 0.617 | 0.543 | 0.576 | 0.646 | 0.629 | 0.832 | 0.643 | 0.781 | 0.735 | 0.805
IA-LM | – | – | – | – | – | – | – | – | – | – | 0.569 | 0.281 | 0.66 | 0.383 | 0.695 | 0.839 | 0.95 | 0.898 | 0.718 | 0.899
EKVX | 0.401 | 0.316 | 0.38 | 0.374 | 0.494 | 0.797 | 0.851 | 0.79 | 0.758 | 0.776 | 0.929 | 1.01 | 1.09 | 0.955 | 1.05 | 1.01 | 0.919 | 0.814 | 0.907 | 0.963
ChaGo-K-1 | 0.224 | 0.18 | 0.222 | 0.228 | 0.233 | 0.688 | 0.675 | 0.498 | 0.53 | 0.609 | – | – | – | – | – | 1.05 | 1.14 | 1.16 | 1.51 | 1.24
